{"source": "paper PMC3914206", "key": {"[1]": {"target": "T1, panel of 442 kinases (Homo sapiens, UniProt Q9Y616)", "T1 construct": "purchased KINOMEscan", "T1 sequence (Q9Y616 1-596)": "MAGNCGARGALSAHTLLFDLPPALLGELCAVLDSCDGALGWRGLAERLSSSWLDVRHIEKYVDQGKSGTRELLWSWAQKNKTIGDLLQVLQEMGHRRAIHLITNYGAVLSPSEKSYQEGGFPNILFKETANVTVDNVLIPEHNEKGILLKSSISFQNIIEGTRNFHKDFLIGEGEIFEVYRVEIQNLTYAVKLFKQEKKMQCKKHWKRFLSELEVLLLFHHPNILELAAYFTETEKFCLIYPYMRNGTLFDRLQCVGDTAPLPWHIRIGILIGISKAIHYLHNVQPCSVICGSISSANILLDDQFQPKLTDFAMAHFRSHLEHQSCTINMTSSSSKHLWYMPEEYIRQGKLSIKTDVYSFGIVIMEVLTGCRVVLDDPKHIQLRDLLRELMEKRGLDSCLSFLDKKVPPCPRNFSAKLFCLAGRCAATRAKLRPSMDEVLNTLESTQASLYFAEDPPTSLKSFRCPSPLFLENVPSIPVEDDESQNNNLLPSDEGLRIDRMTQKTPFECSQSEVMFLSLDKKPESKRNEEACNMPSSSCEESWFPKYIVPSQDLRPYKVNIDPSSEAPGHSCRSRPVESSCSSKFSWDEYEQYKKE", "format": "binding", "conditions": "Compound Concentration 10 µM", "source_text": "(§1) We assessed the selectivity of members of this scaffold using the KINOMEscan methodology across a near comprehensive panel of 442 kinases [[18,27]]."}, "[2]": {"target": "T2, panel of 442 kinases (Homo sapiens, UniProt P14616)", "T2 construct": "purchased KINOMEscan", "T2 sequence (P14616 27-1297)": "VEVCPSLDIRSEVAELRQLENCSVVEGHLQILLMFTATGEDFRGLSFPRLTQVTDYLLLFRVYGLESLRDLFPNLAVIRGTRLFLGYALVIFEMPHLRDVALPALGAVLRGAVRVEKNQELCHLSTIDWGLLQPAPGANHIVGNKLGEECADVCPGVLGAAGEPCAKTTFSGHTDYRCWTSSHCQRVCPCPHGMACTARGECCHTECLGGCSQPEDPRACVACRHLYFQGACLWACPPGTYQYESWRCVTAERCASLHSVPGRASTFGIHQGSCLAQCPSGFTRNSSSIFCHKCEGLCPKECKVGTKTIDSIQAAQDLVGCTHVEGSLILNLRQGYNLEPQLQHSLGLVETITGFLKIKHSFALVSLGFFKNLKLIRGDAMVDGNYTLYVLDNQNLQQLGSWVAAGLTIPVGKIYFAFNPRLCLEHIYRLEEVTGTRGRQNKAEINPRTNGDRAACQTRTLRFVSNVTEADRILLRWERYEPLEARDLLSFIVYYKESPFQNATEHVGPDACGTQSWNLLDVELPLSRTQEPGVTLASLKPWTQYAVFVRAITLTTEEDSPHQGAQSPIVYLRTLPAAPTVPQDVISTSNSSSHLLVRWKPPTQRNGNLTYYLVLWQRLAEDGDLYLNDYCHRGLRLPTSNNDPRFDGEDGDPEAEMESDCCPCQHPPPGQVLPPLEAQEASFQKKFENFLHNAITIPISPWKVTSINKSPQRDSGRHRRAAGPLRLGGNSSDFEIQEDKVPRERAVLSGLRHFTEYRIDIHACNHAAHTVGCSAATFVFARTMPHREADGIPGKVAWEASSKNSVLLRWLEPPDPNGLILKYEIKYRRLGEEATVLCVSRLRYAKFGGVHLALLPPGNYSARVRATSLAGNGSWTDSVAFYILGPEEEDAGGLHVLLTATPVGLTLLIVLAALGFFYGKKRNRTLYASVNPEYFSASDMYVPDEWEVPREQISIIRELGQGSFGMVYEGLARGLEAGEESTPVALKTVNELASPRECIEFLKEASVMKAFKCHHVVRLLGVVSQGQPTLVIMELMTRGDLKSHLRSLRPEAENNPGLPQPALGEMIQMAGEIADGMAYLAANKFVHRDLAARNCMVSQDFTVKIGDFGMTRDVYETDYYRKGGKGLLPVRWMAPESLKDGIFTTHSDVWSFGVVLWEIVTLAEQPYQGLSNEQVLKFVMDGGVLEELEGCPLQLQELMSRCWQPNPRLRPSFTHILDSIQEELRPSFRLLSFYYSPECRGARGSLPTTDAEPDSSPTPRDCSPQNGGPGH", "format": "binding", "conditions": "Compound Concentration 10 µM", "source_text": "as §1"}}, "data": [{"smiles": "CCOc1cc(C(=O)N2CCC(N3CCN(C)CC3)CC2)ccc1Nc1ncc2c(n1)N(C1CCCC1)c1ccccc1C(=O)N2C", "note": "[Compound 26]", "values": [{"measurement": "KINOMEscan: IRAK3", "setting": "[1]", "result": 100}, {"measurement": "KINOMEscan: INSRR", "setting": "[2]", "result": 100}]}, {"smiles": "COc1cc(C(=O)N2CCC(N3CCN(C)CC3)CC2)ccc1Nc1ncc2c(n1)N(C1CCCC1)c1ccccc1C(=O)N2C", "note": "[Compound 25, 11-cyclopentyl-2-((2-methoxy-4-(4-(4-methylpiperazin-1-yl)piperidine-1-carbonyl)phenyl)amino)-5-methyl-5H-benzo[e]pyrimido[5,4-b][1,4]diazepin-6(11H)-one]", "values": [{"measurement": "KINOMEscan: IRAK3", "setting": "[1]", "result": 100}, {"measurement": "KINOMEscan: INSRR", "setting": "[2]", "result": 94}]}, {"smiles": "COc1cc(C(=O)N2CCC(N3CCN(C)CC3)CC2)ccc1Nc1ncc2c(n1)N(C)c1ccccc1C(=O)N2C", "note": "[15 (LRRK2-IN-1)]", "values": [{"measurement": "KINOMEscan: IRAK3", "setting": "[1]", "result": 100}, {"measurement": "KINOMEscan: INSRR", "setting": "[2]", "result": 97}]}]}
